23 compounds from US9133191B2, “Substituted triazine derivatives and use thereof as stimulators of soluble guanylate cyclase” (Bayer Intellectual Property GmbH, priority 2012, dated 2015) can be followed below.

For assay [1], the system named is recombinant guanylate cyclase reporter cell line. The assay is described as follows: Effect on a recombinant guanylate cyclase reporter cell line. The conditions noted are these: read-out: MEC (minimum effective concentration). Format: cell-based. Here is the method:
B-2. Effect on a Recombinant Guanylate Cyclase Reporter Cell Line
The cellular effect of the compounds according to the invention is determined using a recombinant guanylate cyclase reporter cell line, as described in F. Wunder et al., Anal. Biochem. 339, 104-112 (2005).

Assay [2] concerns aorta rings. The assay is described as follows: Vasorelaxant effect in vitro (phenylephrine-contracted rabbit aorta rings). Particulars: Oryctolagus cuniculus, phenylephrine contraction, concentration needed to reduce the control value by 50%. The arrangement: species or system Rabbits. On the procedure: B-1. Vasorelaxant Effect In Vitro
Rabbits are stunned by a blow to the neck and exsanguinated. The aorta is removed, freed from adhering tissue and divided into rings of a width of 1.5 mm. The rings are placed individually under an initial tension in 5 ml organ baths with Krebs-Henseleit solution which is at 37° C., is gassed with carbogen and has the following composition (in each case mM): sodium chloride: 119; potassium chloride: 4.8; calcium chloride dihydrate: 1; magnesium sulphate heptahydrate: 1.4; potassium dihydrogenphosphate: 1.2; sodium bicarbonate: 25; glucose: 10. The contractile force is determined with Statham UC2 cells, amplified and digitalized using A/D transducers (DAS-1802 HC, Keithley Instruments Munich), and recorded in parallel on linear recorders. To produce a contraction, phenylephrine is added to the bath cumulatively in increasing concentration. After several control cycles, the substance to be investigated is added in each further run in increasing dosage in each case, and the height of the contraction achieved is compared with the height of the contraction reached in the last preceding run. This is used to calculate the concentration needed to reduce the magnitude of the control value by 50% (IC50 value). The standard administration volume is 5 μl; the DMSO content in the bath solution corresponds to 0.1%.

Turning to `Nc1nc(-c2nn(Cc3ccccc3F)c3ncccc23)nnc1-c1cncc(F)c1` [Example 1, 3-[1-(2-Fluorobenzyl)-1H-pyrazolo[3,4-b]pyridin-3-yl]-6-(5-fluoropyridin-3-yl)-1,2,4-triazine-5-amine], in assay [1], the minimal effective concentration stood at 0.1 µM. With `Cc1ncccc1-c1nnc(-c2nn(Cc3ccccc3F)c3ncccc23)nc1N` [Example 2, 3-[1-(2-Fluorobenzyl)-1H-pyrazolo[3,4-b]pyridin-3-yl]-6-(2-methylpyridin-3-yl)-1,2,4-triazine-5-amine], the minimal effective concentration in assay [1] came out at 0.1 µM.

For `Cc1noc(C)c1-c1nnc(-c2nn(Cc3ccccc3F)c3ncccc23)nc1N` [Example 3, 6-(3,5-Dimethyl-1,2-oxazol-4-yl)-3-[1-(2-fluorobenzyl)-1H-pyrazolo[3,4-b]pyridin-3-yl]-1,2,4-triazine-5-amine], the minimal effective concentration in assay [1] was 0.3 µM. Same read-out and setting: as for `COc1ccc(-c2nnc(-c3nn(Cc4ccccc4F)c4ncccc34)nc2N)cn1` [Example 4, 3-[1-(2-Fluorobenzyl)-1H-pyrazolo[3,4-b]pyridin-3-yl]-6-(6-methoxypyridin-3-yl)-1,2,4-triazine-5-amine], the figure is 0.03 µM. With `Nc1nc(-c2nn(Cc3ccccc3F)c3ncccc23)nnc1-c1ccncc1` [Example 5, 3-[1-(2-Fluorobenzyl)-1H-pyrazolo[3,4-b]pyridin-3-yl]-6-(pyridin-4-yl)-1,2,4-triazine-5-amine], the minimal effective concentration in assay [1] worked out at 0.1 µM. For `Cn1cc(-c2nnc(-c3nn(Cc4ccccc4F)c4ncccc34)nc2N)cn1` [Example 6, 3-[1-(2-Fluorobenzyl)-1H-pyrazolo[3,4-b]pyridin-3-yl]-6-(1-methyl-1H-pyrazol-4-yl)-1,2,4-triazine-5-amine], the minimal effective concentration in assay [1] was determined as 0.1 µM. For the compound `Nc1nc(-c2nn(Cc3ccccc3F)c3ncccc23)nnc1-c1cccnc1` [Example 7, 3-[1-(2-Fluorobenzyl)-1H-pyrazolo[3,4-b]pyridin-3-yl]-6-(pyridin-3-yl)-1,2,4-triazine-5-amine], in assay [1], the minimal effective concentration was 0.1 µM. For `COc1ncccc1-c1nnc(-c2nn(Cc3ccccc3F)c3ncccc23)nc1N` [Example 8, 3-[1-(2-Fluorobenzyl)-1H-pyrazolo[3,4-b]pyridin-3-yl]-6-(2-methoxypyridin-3-yl)-1,2,4-triazine-5-amine], the minimal effective concentration in assay [1] was 0.1 µM. Regarding `Cc1cc(-c2nnc(-c3nn(Cc4ccccc4F)c4ncccc34)nc2N)ccn1` [Example 9, 3-[1-(2-Fluorobenzyl)-1H-pyrazolo[3,4-b]pyridin-3-yl]-6-(2-methylpyridin-4-yl)-1,2,4-triazine-5-amine], the minimal effective concentration in assay [1] turned out to be 0.1 µM. With `Nc1nnc(-c2nn(Cc3ccccc3F)c3ncccc23)nc1N` [Example 10, 3-[1-(2-Fluorobenzyl)-1H-pyrazolo[3,4-b]pyridin-3-yl]-1,2,4-triazine-5,6-diamine], in assay [1], the minimal effective concentration came to 0.1 µM. In turn, `CS(=O)(=O)Nc1nnc(-c2nn(Cc3ccccc3F)c3ncccc23)nc1N` [Example 11, N-{5-Amino-3-[1-(2-fluorobenzyl)-1H-pyrazolo[3,4-b]pyridin-3-yl]-1,2,4-triazin-6-yl}methanesulphonamide] displayed an IC50 in assay [2] of 2960 nM. The minimal effective concentration in assay [1] was determined as 1 µM. Consider `COC(=O)Nc1nnc(-c2nn(Cc3ccccc3F)c3ncccc23)nc1N` [Example 12, Methyl {5-amino-3-[1-(2-fluorobenzyl)-1H-pyrazolo[3,4-b]pyridin-3-yl]-1,2,4-triazin-6-yl}carbamate], for which, in assay [2], the IC50 was 112 nM. For the same compound, the minimal effective concentration in assay [1] worked out at 0.3 µM. Compound `Oc1nc(-c2nn(Cc3ccccc3F)c3ncccc23)nnc1C(F)(F)F` [Example 13, 3-[1-(2-Fluorobenzyl)-1H-pyrazolo[3,4-b]pyridin-3-yl]-6-(trifluoromethyl)-1,2,4-triazin-5-ol] gave an IC50 in assay [2] of 2630 nM. In addition, the minimal effective concentration in assay [1] amounted to 3 µM. `Nc1nc(-c2nn(Cc3ccccc3F)c3ncccc23)nnc1C(F)(F)F` [Example 14, 3-[1-(2-Fluorobenzyl)-1H-pyrazolo[3,4-b]pyridin-3-yl]-6-(trifluoromethyl)-1,2,4-triazine-5-amine] gave an IC50 in assay [2] of 52 nM. Moreover, the minimal effective concentration in assay [1] turned out to be 0.03 µM. For the compound `Oc1nc(-c2nn(Cc3ccccc3F)c3ncccc23)nnc1C1CCCC1` [Example 15, 6-Cyclopentyl-3-[1-(2-fluorobenzyl)-1H-pyrazolo[3,4-b]pyridin-3-yl]-1,2,4-triazin-5-ol], in assay [2], the IC50 amounted to 1090 nM. The minimal effective concentration in assay [1] turned out to be 1 µM.

As to `Nc1nc(-c2nn(Cc3ccccc3F)c3ncccc23)nnc1C1CCCC1` [Example 16, 6-Cyclopentyl-3-[1-(2-fluorobenzyl)-1H-pyrazolo[3,4-b]pyridin-3-yl]-1,2,4-triazine-5-amine], in assay [2], half-maximal inhibition (IC50) required 25 nM. The minimal effective concentration in assay [1] was 0.03 µM. `CCCc1nnc(-c2nn(Cc3ccccc3F)c3ncccc23)nc1O` [Example 17, 3-[1-(2-Fluorobenzyl)-1H-pyrazolo[3,4-b]pyridin-3-yl]-6-propyl-1,2,4-triazin-5-ol]: the minimal effective concentration in assay [1] is 1 µM. Consider `CCCc1nnc(-c2nn(Cc3ccccc3F)c3ncccc23)nc1N` [Example 18, 3-[1-(2-Fluorobenzyl)-1H-pyrazolo[3,4-b]pyridin-3-yl]-6-propyl-1,2,4-triazine-5-amine], for which the IC50 in assay [2] worked out at 30 nM. Besides, in assay [1], the minimal effective concentration is 0.1 µM. With `CCc1nnc(-c2nn(Cc3ccccc3F)c3ncccc23)nc1O` [Example 19, 6-Ethyl-3-[1-(2-fluorobenzyl)-1H-pyrazolo[3,4-b]pyridin-3-yl]-1,2,4-triazin-5-ol], in assay [1], the minimal effective concentration amounted to 1 µM. In turn, `CCc1nnc(-c2nn(Cc3ccccc3F)c3ncccc23)nc1N` [Example 20, 6-Ethyl-3-[1-(2-fluorobenzyl)-1H-pyrazolo[3,4-b]pyridin-3-yl]-1,2,4-triazine-5-amine] had an IC50 in assay [2] of 30 nM. Further, the minimal effective concentration in assay [1] is 0.1 µM. In the case of `CC(C)c1nnc(-c2nn(Cc3ccccc3F)c3ncccc23)nc1O` [Example 21, 3-[1-(2-Fluorobenzyl)-1H-pyrazolo[3,4-b]pyridin-3-yl]-6-isopropyl-1,2,4-triazin-5-ol], it took 916 nM to reach half-maximal inhibition in assay [2] (IC50). In addition, the minimal effective concentration in assay [1] is 0.3 µM. In the case of `CC(C)c1nnc(-c2nn(Cc3ccccc3F)c3ncccc23)nc1N` [Example 22, 3-[1-(2-Fluorobenzyl)-1H-pyrazolo[3,4-b]pyridin-3-yl]-6-isopropyl-1,2,4-triazine-5-amine], in assay [2], the IC50 was 27 nM. The minimal effective concentration in assay [1] amounted to 0.1 µM.

Consider `CC(F)c1nnc(-c2nn(Cc3ccccc3F)c3ncccc23)nc1N` (stereo not shown) [Example 23, 3-[1-(2-Fluorobenzyl)-1H-pyrazolo[3,4-b]pyridin-3-yl]-6-(1-fluoroethyl)-1,2,4-triazine-5-amine], for which it took 23 nM to reach half-maximal inhibition in assay [2] (IC50). Moreover, the minimal effective concentration in assay [1] was 0.1 µM.
